In the NIST ThermoML archive (doi:10.1021/je7004787) one finds viscosity and mass density data, which are given here for two molecules.

This data set in a line: wn = mass fraction of the nth substance listed. The settings on record: 298.15 K, 101 kPa, Liquid; for viscosity: Capillary tube (Ostwald / Ubbelohde) method; for mass density: Pycnometric method.

One may read the viscosity as the resistance of a fluid to flow. For orientation: mass density means the mass of a sample divided by its volume.

Molecules are shown by their SMILES. Numbers after ± are expanded uncertainties.

`C1COCCO1` [1,4-dioxane] + C1CCOC1: the viscosity by setting is: (w1 = 0.1) 0.49 ± 0.014 mPa·s; (w1 = 0.2) 0.51 ± 0.014 mPa·s; (w1 = 0.3) 0.53 ± 0.015 mPa·s; (w1 = 1) 1.2 ± 0.031 mPa·s. For the same molecule, the mass density is on record as 894.1 ± 4.5 kg/m3 (w1 = 0.1), 907.1 ± 4.6 kg/m3 (w1 = 0.2), 919 ± 4.8 kg/m3 (w1 = 0.3) and 1030.5 ± 6 kg/m3 (w1 = 1).

With `C1CCOC1` [tetrahydrofuran] + C1COCCO1, for the setting “w2 = 0”, the viscosity amounted to 0.463 ± 0.013 mPa·s and the mass density is on record as 880.7 ± 4.4 kg/m3.
